For two compounds, Ki results are on record in patent US7846946B2, “Heteroatom-linked substituted piperidines and derivatives thereof useful as histamine H3 antagonists” (Schering Plough Corporation, priority 2005, dated 2010).

For assay [1], the target named is T1, H3 receptors (guinea pig brain) (Cavia porcellus, UniProt Q9JI35).
T1 construct: The brain tissue was homogenized with a solution of 50 mM Tris, pH 7.5; from tissue; host or cells: guinea pig brain membranes
Description: H3-receptor binding assay, guinea pig receptor. The conditions noted are these: radioligand [3H]R-α-methyl histamine or [3H]Nα-methyl histamine. The procedure: (§1) General Procedure for H3-Receptor Binding Assay
(§2) The source of the H3 receptors in this experiment was guinea pig brain. Alternatively, the source of H3 receptors was recombinant human receptor, expressed in HEK-293 (human embryonic kidney) cells.
The animals weighed 400-600 g. The brain tissue was homogenized with a solution of 50 mM Tris, pH 7.5. The final concentration of tissue in the homogenization buffer was 10% w/v. The homogenates were centrifuged at 1,000×g for 10 min. in order to remove clumps of tissue and debris. The resulting supernatants were then centrifuged at 50,000×g for 20 min. in order to sediment the membranes, which were next washed three times in homogenization buffer (50,000×g for 20 min. each). The membranes were frozen and stored at −70° C. until needed.
All compounds to be tested were dissolved in DMSO and then diluted into the binding buffer (50 mM Tris, pH 7.5) such that the final concentration was 2 μg/ml with 0.1% DMSO. Membranes were then added (400 μg of protein, 5 μg in the case of recombinant human receptor) to the reaction tubes. […] Bound ligand was separated from unbound ligand by filtration, and the amount of radioactive ligand bound to the membranes was quantitated by liquid scintillation spectrometry. […]

Assay [2] has as its target T2, recombinant human H3 receptor, expressed in HEK-293 cells (Homo sapiens, UniProt Q9Y5N1).
T2 construct: expressed in transfected cells; host or cells: HEK-293 (human embryonic kidney) cells
The assay is described as follows: H3-receptor binding assay, recombinant human receptor. The conditions noted are these: recombinant human receptor assay (HEK-293). The method, then: as §1, §2
All compounds to be tested were dissolved in DMSO and then diluted into the binding buffer (50 mM Tris, pH 7.5) such that the final concentration was 2 μg/ml with 0.1% DMSO. Membranes were then added (400 μg of protein, 5 μg in the case of recombinant human receptor) to the reaction tubes. The reaction was started by the addition of 3 nM [^3H]R-α-methyl histamine (8.8 Ci/mmol) or 3 nM [^3H]Na^α-methyl histamine (80 Ci/mmol) and continued under incubation at 30° C. for 30 min. Bound ligand was separated from unbound ligand by filtration, and the amount of radioactive ligand bound to the membranes was quantitated by liquid scintillation spectrometry. All incubations were performed in duplicate and the standard error was always less than 10%. Compounds that inhibited more than 70% of the specific binding of radioactive ligand to the receptor were serially diluted to determine a Ki (nM).

T2 sequence (Q9Y5N1 whole entry): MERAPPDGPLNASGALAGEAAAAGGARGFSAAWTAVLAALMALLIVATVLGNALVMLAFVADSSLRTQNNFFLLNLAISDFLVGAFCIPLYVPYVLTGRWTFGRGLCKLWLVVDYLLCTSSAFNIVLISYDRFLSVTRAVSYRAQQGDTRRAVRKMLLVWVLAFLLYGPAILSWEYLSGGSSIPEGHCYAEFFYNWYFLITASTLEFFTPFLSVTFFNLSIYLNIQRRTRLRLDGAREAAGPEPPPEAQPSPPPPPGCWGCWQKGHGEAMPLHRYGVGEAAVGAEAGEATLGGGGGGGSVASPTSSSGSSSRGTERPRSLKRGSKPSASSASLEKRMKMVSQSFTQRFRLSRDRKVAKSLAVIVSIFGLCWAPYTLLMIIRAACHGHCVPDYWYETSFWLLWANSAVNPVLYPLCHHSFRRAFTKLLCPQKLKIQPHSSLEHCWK
T1 sequence (Q9JI35 whole entry): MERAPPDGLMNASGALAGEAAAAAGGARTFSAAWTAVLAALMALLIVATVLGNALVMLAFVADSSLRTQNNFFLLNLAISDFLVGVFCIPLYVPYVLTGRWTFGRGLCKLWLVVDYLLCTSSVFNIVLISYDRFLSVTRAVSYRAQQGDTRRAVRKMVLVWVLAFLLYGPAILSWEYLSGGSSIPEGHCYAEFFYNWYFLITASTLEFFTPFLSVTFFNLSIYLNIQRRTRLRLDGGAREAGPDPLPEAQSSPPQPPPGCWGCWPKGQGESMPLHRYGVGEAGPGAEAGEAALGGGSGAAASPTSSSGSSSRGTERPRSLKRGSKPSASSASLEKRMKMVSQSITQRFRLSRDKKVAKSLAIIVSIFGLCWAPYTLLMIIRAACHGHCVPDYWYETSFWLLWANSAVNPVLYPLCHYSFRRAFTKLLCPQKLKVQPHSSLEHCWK

For `Cc1cc(C(=O)NCc2cccnc2NC2CCN(C(=O)C3CCN(Cc4ccnc(N)c4)CC3)CC2)no1` [Example 11], the Ki in assay [1] turned out to be 0.2 nM.

Regarding `Nc1cc(CN2CCC(C(=O)N3CCC(NCc4ccc(F)cc4F)CC3)CC2)ccn1` [Example 256], in assay [2], the Ki stood at 0.7 nM.

A word on the Ki: it is the dissociation constant of the complex between target and ligand, obtained from inhibition or displacement.
